Assay results taken from US10525044B2, “Treatment for chemotherapy-induced peripheral neuropathy” (priority 2013, dated 2020).

Experiments:
[1] = system: intracellular free calcium; details: 5 μM; ischemic condition (19-fold increase); cited from earlier work
[2] = system: middle cerebral artery occlusion (MCAo); details: cited from earlier work
[3] = system: ischemic neurodegeneration; details: 0.45 μM; cited from earlier work
[4] = system: intramitochondrial ROS in neurons; experiment: ROS examination with DHR 123 in neurons; format: cell-based, Sprague-Dawley rats; details: 10 μM PAN-811; 100 μM MTX and 25 μM 5-FU; 1 day
Source text: Neuronal Cell Culture. […] Since AOs, including vitamin E, vitamin E acetate, superoxide dismutase (SOD), catalase (CAT), and GSH, are additives to culture medium, reduction of AO concentration in culture medium provides an approach to determine the level of OS involvement in a neurotoxic process. In our study, the culture medium was replaced at a 50% ratio with NB plus B27 minus AOs twice at days 7 and 9 to set AO concentrations as 50% and 25%, respectively. […] Cell Insults and Treatments. Determination of concentration for each anticancer drug in our experiments was based on its reported concentration in human cerebral spinal fluid (CSF) in chemotherapy, literature report of its neurotoxicity in culture, and our preliminary in vitro experimental data. […] For ROS examination, the neurons were insulted with both 100 μM of MTX and 25 μM of 5-FU by 15 d.i.v. […] ROS Examination. […] Fluorescence was photographed by using a fluorescentmicroscope and quantified by excitation at 485 nm and emission at 520 nm using a 96-well plate reader (Model 550, Bio-Rad). […] Data were generated from 4-6 replicate wells, expressed as mean±standard deviation (SD), and statistically evaluated at a significance level of 1% with one factor ANOVA or Student's t-test by using software […] […]

ribonucleotide reductase = target: T1, ribonucleotide reductase (Homo sapiens, UniProt P31350); details: cited from earlier work
T1 sequence (P31350 1-389): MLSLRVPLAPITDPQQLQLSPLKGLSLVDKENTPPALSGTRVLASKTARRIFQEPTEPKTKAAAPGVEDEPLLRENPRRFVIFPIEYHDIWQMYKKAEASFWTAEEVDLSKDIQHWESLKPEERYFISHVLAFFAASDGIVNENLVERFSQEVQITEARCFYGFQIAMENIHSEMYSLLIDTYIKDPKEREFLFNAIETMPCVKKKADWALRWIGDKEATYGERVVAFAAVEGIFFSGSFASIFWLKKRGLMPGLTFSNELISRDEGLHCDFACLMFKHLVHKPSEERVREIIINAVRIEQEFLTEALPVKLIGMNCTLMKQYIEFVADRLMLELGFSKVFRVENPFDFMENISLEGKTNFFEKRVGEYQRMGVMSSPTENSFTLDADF

sodium channel = details: cited from earlier work
cultured neuronal cells = details: cited from earlier work

NC(=S)N/N=C/c1ncccc1N [PAN-811, 3-aminopyridine-2-carboxaldehyde thiosemicarbazone]
reduction of elevated intracellular free calcium [1]: 72%
reduction of mortality ([2]; PAN-811 treated groups collectively): 44%
reduction in brain edema volume ([2]; i.v., 2 mg/kg): 70%
reduction of infarct volume, maximal protection ([2]; single i.v. bolus, 2 mg/kg): 50%
ischemic neurodegeneration [3]: fully blocked
suppression rate of increased ROS (DHR123) [4]: 62.3%
ability to inhibit ribonucleotide reductase (ribonucleotide reductase): inhibit
veratridine-induced sodium channel opening related to Ca2+ influx (sodium channel): prevents
neuroprotection against glutamate insult (cultured neuronal cells; cells pretreated with 10 μM for 24 h): Nearly complete neuroprotection
glutamate-induced excitatory cytotoxicity (cultured neuronal cells): prevents
